Laboratory results from patent publication US7279479B2, “Method for the treatment of heart failure” (Orion Corporation, priority 2001, dated 2007).

Legend:
[1] = test system: guinea-pigs intoxicated with diltiazem; test: Survival of anesthetized guinea-pigs intoxicated with diltiazem (acute heart failure); format: in vivo, guinea-pig (Dunkin Hartley); details: diltiazem 4.5 mg/kg i.v.
Description: At zero time, the intoxication was started with an intravenous bolus injection of diltiazem and immediately continued with a 4-min infusion. The total dose of diltiazem was 4.5 mg/kg. Control animals were treated with saline. All treatments were started one minute after the end of the diltiazem infusion. *p<0.05, **p<0.01, ***p<0.001 vs. control (Kaplan-Meier survival analysis followed by the logrank test).
(§1) 120 spontaneously breathing guinea-pigs (Dunkin Hartley, weighing 470±5 grams, mean±SEM) were anesthetised with isoflurane. The left ventricular and brachial arterial pressures were measured. The carotid artery was surgically exposed in order to introduce a pressure transducer into the left ventricle. A fluid-filled polyethylene cannula was inserted into the brachial artery and connected to another pressure transducer for recording of arterial pressure. The pressure signals were amplified, digitized and sampled.

[2] = test system: guinea-pigs intoxicated with verapamil; test: Survival of anesthetized guinea-pigs intoxicated with verapamil (acute heart failure); format: in vivo, guinea-pig (Dunkin Hartley); details: verapamil 2.0 mg/kg i.v.; 60 min follow-up; low doses: levosimendan 8.4 μg/kg bolus + 0.14 μg/kg/min, CaCl2 10 mg/kg bolus + 0.5 mg/kg/min; vs saline control
Description: At zero time, the intoxication was started with an intravenous bolus injection of verapamil and immediately continued with a 4-min infusion. The total dose of verapamil was 2.0 mg/kg. Control animals were treated with saline.
as §1

SMILES | survival rate ([1]; 60 minutes after intoxication began, levosimendan 8.4 μg/kg bolus + 0.14 μg/kg/min, control 13%) [%] | effect on survival (in words) [2] | effect on survival (in words) ([1]; 60 min follow-up, low doses: levosimendan 8.4 μg/kg bolus + 0.14 μg/kg/min, CaCl2 10 mg/kg bolus + 0.5 mg/kg/min, vs saline control)
CC1CC(=O)NN=C1c1ccc(NN=C(C#N)C#N)cc1 (single isomer, unassigned; (-)) [levosimendan, (−)-enantiomer of [[4-(1,4,5,6-tetrahydro-4-methyl-6-oxo-3-pyridazinyl)phenyl]hydrazono]propanedinitrile] | 63 | did not improve the survival | –
[Ca+2].[Cl-].[Cl-] [calcium chloride] | – | did not affect the survival rate | did not affect the survival rate
